Experimental data as given in patent US12338261B2 (SUMITOMO PHARMA ONCOLOGY, INC., priority 2015, dated 2025).
Where two headings read alike, the source gives them in different places.

How the values were obtained:
Dog plasma stability = format: in vitro ADME; conditions: dog plasma
Procedure: The plasma stability of compound IB′ was determined using plasma from four species. Results for mouse, rat, dog and human are shown in Tables 5, 6, 7 and 8 respectively. Alvocidib and flumazenil were used as controls. In mouse, rat and human plasma, compound IB′ maintained 100% stability after 5 hour incubation. In dog plasma, approximately 90% of compound IB′ remained after 5 hours.

[1] = Pharmacokinetics in Sprague Dawley rats; format: in vivo, rat; conditions: SD rats; for concentration at 0.5 h: 0.50 hr
Procedure: Plasma samples were taken at 8 time-points (IV) or 7 time points (oral) over a 24 hour period following a single dose of compound IB′ (3 animals per group). […] The plasma samples were also analyzed for the presence of compound IB′.

[2] = male, Sprague Dawley, rat, plasma, IV 1 mg/kg, read-out: Plasma concentration of compound IB′ itself
[3] = male, Sprague Dawley, rat, plasma, PO 10 mg/kg, read-out: Plasma concentration of compound IB′ itself

CN1CC[C@H](c2c(OP(=O)(O)O)cc(O)c3c(=O)cc(-c4ccccc4Cl)oc23)[C@H](O)C1 [Compound IB′, 2-(2-chlorophenyl)-5-hydroxy-8-(3-hydroxy-1-methylpiperidin-4-yl)-4-oxo-4H-chromen-7-yl dihydrogen phosphate]
% Remaining (Dog plasma stability; 0 hours): 100.00%
% Remaining (Dog plasma stability; 0.5 hours): 83.66%
% Remaining (Dog plasma stability; 1 hour): 94.53%
% Remaining (Dog plasma stability; 2 hours): 112.61%
% Remaining (Dog plasma stability; 3 hours): 99.16%
% Remaining (Dog plasma stability; 4 hours): 93.91%
Plasma concentration of compound IB′ itself ([1]; IV 1 mg/kg, 2.00 hr, 1 mg/kg): below quantitative levels and BQL
Plasma concentration of compound IB′ itself ([1]; IV 1 mg/kg, 4.00 hr): BQL
Plasma concentration of compound IB′ itself ([1]; IV 1 mg/kg, 6.00 hr): BQL
Plasma concentration of compound IB′ itself ([1]; IV 1 mg/kg, 8.00 hr): BQL
Plasma concentration of compound IB′ itself ([1]; IV 1 mg/kg, 24.00 hr): BQL
Plasma concentration of compound IB′ itself ([1]; PO 10 mg/kg, 2.00 hr, 10 mg/kg): below quantitative levels and BQL
Plasma concentration of compound IB′ itself ([1]; PO 10 mg/kg, 4.00 hr): BQL
Plasma concentration of compound IB′ itself ([1]; PO 10 mg/kg, 6.00 hr): BQL
Plasma concentration of compound IB′ itself ([1]; PO 10 mg/kg, 8.00 hr): BQL
Plasma concentration of compound IB′ itself ([1]; PO 10 mg/kg, 24.00 hr): BQL
concentration at 0.083 h ([1]; male, Sprague Dawley, rat, plasma, IV 1 mg/kg, 0.083 hr, read-out: Plasma concentration of compound IB′ itself): 0.43 µg/mL
concentration at 0.25 h [1, 2]: 0.082 µg/mL
concentration at 0.5 h [1, 2]: 0.0246 µg/mL
concentration at 1 h [1, 2]: 0.0093 µg/mL
concentration at 0.25 h [1, 3]: 0.03 µg/mL
concentration at 0.5 h [1, 3]: 0.0204 µg/mL
concentration at 1 h [1, 3]: 0.0093 µg/mL
